# Results from the supplement of paper PMC9938120.
# What was measured:
# Assay in all cases: drug sensitivity score (DSS3, normalised partial AUC of % inhibition dose-response) (DSS (score)); higher = more sensitive (stronger inhibition of viability); extreme values may be limits of the assay
# FMOC14 = patient-derived high-grade serous ovarian cancer cells; conditions: 72 h; library: FO5A; assay format: 2D, 384-well, CellTiter-Glo
# Summary of the method: (§1)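 The drug sensitivity score is calculated as a partial area under the percent-inhibition dose-response curve, divided by the log of the upper asymptote; higher scores mean more sensitive. For this score, early-passage (under 10) patient-derived ovarian cancer cells were exposed on 384-well flat clear-bottom plates to compounds at five concentrations across a 10,000-fold range for 72 h at 37 °C, 5% CO2. Viability was read with CellTiter-Glo and processed in Breeze.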
# FMOC22 = patient-derived mucinous ovarian cancer cells; conditions: 72 h; library: FO5A; assay format: 2D, 384-well, CellTiter-Glo
# Summary of the method: as §1
# FMOC25_1 = patient-derived low-grade serous ovarian cancer cells; conditions: 72 h; library: FO4B; assay format: 2D, 384-well, CellTiter-Glo
# Summary of the method: as §1
# FMOC02_3 = patient-derived low-grade serous ovarian cancer cells; conditions: 72 h; library: FO5A; assay format: 2D, 384-well, CellTiter-Glo
# Summary of the method: as §1
# FMOC24 = patient-derived high-grade serous ovarian cancer cells; conditions: 72 h; library: FO5A; assay format: 2D, 384-well, CellTiter-Glo
# Summary of the method: as §1
# FMOC09 = patient-derived high-grade serous ovarian cancer cells; conditions: 72 h; library: FO5A; assay format: 2D, 384-well, CellTiter-Glo
# Summary of the method: as §1
# FMOC25_2 = patient-derived low-grade serous ovarian cancer cells; conditions: 72 h; library: FO5A; assay format: 2D, 384-well, CellTiter-Glo
# Summary of the method: as §1
# FMOC02_2 = patient-derived low-grade serous ovarian cancer cells; conditions: 72 h; library: FO5A; assay format: 2D, 384-well, CellTiter-Glo
# Summary of the method: as §1
# FMOC03 = patient-derived mucinous ovarian cancer cells; conditions: 72 h; library: FO5A; assay format: 2D, 384-well, CellTiter-Glo
# Summary of the method: as §1
# FMOC06 = patient-derived mucinous ovarian cancer cells; conditions: 72 h; library: FO5A; assay format: 2D, 384-well, CellTiter-Glo
# Summary of the method: as §1
Structure (SMILES),drug sensitivity score (FMOC14),drug sensitivity score (FMOC22),drug sensitivity score (FMOC25_1),drug sensitivity score (FMOC02_3),drug sensitivity score (FMOC24),drug sensitivity score (FMOC09),drug sensitivity score (FMOC25_2),drug sensitivity score (FMOC02_2),drug sensitivity score (FMOC03),drug sensitivity score (FMOC06)
Nc1nc2[nH]cc(CCc3ccc(C(=O)N[C@@H](CCC(=O)O)C(=O)O)cc3)c2c(=O)[nH]1 [Pemetrexed],0,3.4,0,0,1.55,0,3.3,0,2.2,0.3
NS(=O)(=O)OC[C@@H]1C[C@@H](n2ccc3c(N[C@H]4CCc5ccccc54)ncnc32)C[C@@H]1O [Pevonedistat],0.3,12.6,11.5,10.6,10.7,10.1,20.5,10.2,8.2,4.1
CS(=O)(=O)N1CCN(Cc2cc3nc(-c4cccc5[nH]ncc45)nc(N4CCOCC4)c3s2)CC1 [Pictilisib],9.2,5.1,12.9,16.1,5.35,11.9,14.3,16.8,9.4,10.6
CO[C@H](C(=O)[C@@H](O)[C@@H](C)O)[C@@H]1Cc2cc3cc(O[C@H]4C[C@@H](O[C@@H]5C[C@@H](O)[C@H](O)[C@@H](C)O5)[C@H](O)[C@@H](C)O4)c(C)c(O)c3c(O)c2C(=O)[C@H]1O[C@H]1C[C@@H](O[C@@H]2C[C@@H](O)[C@@H](O[C@@H]3C[C@](C)(O)[C@H](O)[C@@H](C)O3)[C@@H](C)O2)[C@H](O)[C@@H](C)O1 [Plicamycin],10.1,5.1,7,16.7,9,2.6,29.1,9,4.6,6.2
C=CC(=O)N1CCC(Oc2cc3c(Nc4ccc(Cl)c(Cl)c4F)ncnc3cc2OC)CC1 [Poziotinib],6.5,0.8,10.5,21.8,2.1,16.7,20.3,24.2,24.6,6.1
CCCCc1nc2cc(/C=C/C(=O)NO)ccc2n1CCN(CC)CC [Pracinostat],12.4,8.7,11.6,13.3,14.8,5.8,10.7,13.3,12.3,12.7
COc1cccc(OCCCN)c1-c1cc(Nc2cnc(C#N)cn2)n[nH]1 [Prexasertib],22.6,19.6,15.3,18.6,24.7,19.5,19.1,15.1,11.8,12.6
Cn1cc(CNCC2CCN(c3ncc(C(=O)NO)cn3)CC2)c2ccccc21 [Quisinostat],10.7,8.1,9.9,10.8,13.6,4.8,11.2,10.9,10.3,9.4
Cc1nc(=O)c2cc(CN(C)c3ccc(C(=O)N[C@@H](CCC(=O)O)C(=O)O)s3)ccc2[nH]1 [Raltitrexed],0.3,3.8,0.1,0,0.05,0,1.3,0,1.5,0
CN(C)Cc1ccc(S(=O)(=O)n2ccc(/C=C/C(=O)NO)c2)cc1 [Resminostat],8.2,6.8,3.4,7.4,6.3,3.3,7.7,9.7,8.1,6.8
CO[C@H]1C[C@@H]2CC[C@@H](C)[C@@](O)(O2)C(=O)C(=O)N2CCCC[C@H]2C(=O)O[C@H]([C@H](C)C[C@@H]2CC[C@@H](OP(C)(C)=O)[C@H](OC)C2)CC(=O)[C@H](C)/C=C(\C)[C@@H](O)[C@@H](OC)C(=O)[C@H](C)C[C@H](C)/C=C/C=C/C=C/1C [Ridaforolimus],3.4,9.3,10.3,13.8,0,4.2,11.8,11.1,4.5,5.7
COc1cc(OC)c(/C=C/S(=O)(=O)Cc2ccc(OC)c(NCC(=O)O)c2)c(OC)c1 [Rigosertib],0.1,16.1,14.3,20.5,6.5,15.4,12,16.4,18.2,14.3
C=CC(=O)Nc1cccc(Nc2nc(Nc3ccc(N4CCN(C(C)=O)CC4)cc3OC)ncc2C(F)(F)F)c1 [Rociletinib],5.2,5.2,9.2,11.7,2.45,8.4,9.4,12.4,8.7,6.7
C/C=C1\NC(=O)[C@H]2CSSCC/C=C/[C@H](CC(=O)N[C@H](C(C)C)C(=O)N2)OC(=O)[C@H](C(C)C)NC1=O [Romidepsin],28.7,26.3,30.1,32.6,32.9,17.6,28.9,26.3,28.3,27.6
CN(C)C[C@@H]1CCn2cc(c3ccccc32)C2=C(C(=O)NC2=O)c2cn(c3ccccc23)CCO1 [Ruboxistaurin],6.8,3.2,5.4,12.8,6.45,7.5,9.3,9.7,3,8.7
CN1CCC(CNc2ccc3ncc(-c4cccc(OC(F)(F)F)c4)n3n2)CC1 [SGI-1776],5,5.9,7.4,8.8,8.05,4.5,7.4,9.2,6.1,6.5
